Measured values as given in US20230263768A1, “WATER-SOLUBLE ARTESUNATE-BASED THERAPY FOR CORONAVIRUS INFECTION” (priority 2020, published 2023).

Columns and labels:
[1] = tested on: SARS-CoV-2 (isolate USA-WA1-2020); test: SARS-CoV-2 replication in VERO E6 cells, viral RNA by qPCR (Ct) after 48 h; assay type: cell-based
[2] = Solubility of artesunate formulations in simulated gastric fluid; assay type: physicochemical; settings: 0.5 g in 10 mL SGF pH 1.2, 36.5° C., 100 rev/min, after 30 minutes
Protocol: An amount of 0.5 g of different artesunate formulations (untreated artesunate, sodium Artesunate, Artesunate/SG complex and WSA powders) are dispersed in 10 mL of simulated gastric fluid (SGF, pH 1.2). All solutions are incubated at 36.5° C. under mild shaking with (100 rev/min) in a G24 Environmental Incubator Shaker (New Brunswick Scientific Co., NJ, USA).

[3] = Example 4, 160 µg/mL, 48 h, VERO E6

Row | Compound | antiviral activity (in words) ([1]; Example 6, dose response and combination with Telmisartan) | appearance of the solution / precipitation in SGF [2] | Cycle Threshold Value (quantity of viral RNA) [1, 3] | antiviral activity (in words) [1, 3] | Cycle Threshold Value (quantity of viral RNA) ([1]; Example 4, 160 µg/mL, 48 h, VERO E6, listed as sodium artesunate)
1 | CCCc1nc2c(C)cc(-c3nc4ccccc4n3C)cc2n1Cc1ccc(-c2ccccc2C(=O)O)cc1 [Telmisartan] | No activity antiviral is observed | – | – | – | –
2 | C[C@H]1[C@H](OC(=O)CCC(=O)[O-])O[C@@H]2O[C@@]3(C)CC[C@H]4[C@H](C)CC[C@@H]1[C@@]24OO3.[Na+] [Sodium Artesunate] | – | cloudy, but no evident precipitation is observed | 22.5 | Low antiviral activity | about 23
3 | C[C@@H]1CCC2[C@@H](C)[C@H](OC(=O)CCC(=O)O)OC3O[C@]4(C)CCC1[C@]32OO4 (stereo partly drawn) [untreated Artesunate, Artesunate] | – | milky appearance, with an important precipitation at the bottom of vial | – | – | –
